These results are taken from ChEMBL document CHEMBL3227988, “Synthesis and antiviral activities of arabinofuranosyl-5-ethylpyrimidine nucleosides. Selective antiherpes activity of 1-(beta-D-arabinofuranosyl)-5-ethyluracil” (J Med Chem, 1979).

Molecules are shown by their SMILES. ≈ marks a conversion by molar mass, not a printed value. Calls of active or inactive are those of the source. No cut-off for these calls is given here.

The subject of assay [1] is Vaccinia virus. Kind of assay: Antiviral activity against Vaccinia virus infected in primary rabbit kidney cells assessed as inhibition of virus-induced cytopathogenicity at 200 ug/ml treated immediately after virus adsorption measured 2 to 3 days after virus infection. The class given is functional, organism-based. Particulars: Orthopoxvirus vaccinia. (Damage to the host cells serves as the signal in cytopathic effect assays.)

The test system of assay [2] is Vaccinia virus. Kind of assay: Antiviral activity against Vaccinia virus infected in primary rabbit kidney cells assessed as inhibition of virus-induced cytopathogenicity treated immediately after virus adsorption measured 2 to 3 days after virus infection. The assay is classed as functional. The note with it: Orthopoxvirus vaccinia.

In the case of `CCc1cn([C@H]2O[C@H](CO)[C@@H](O)[C@@H]2O)c(=O)[nH]c1=O`, the inhibition result in assay [1] was “inactive”.

For the compound `CCc1cn([C@H]2O[C@H](CO)[C@@H](O)[C@@H]2O)c(=O)nc1N`, the inhibition result in assay [1] is “inactive”.

Regarding `Cc1cn([C@@H]2O[C@H](CO)[C@@H](O)[C@@H]2O)c(=O)[nH]c1=O`, the MIC in assay [2] worked out at 4 µg/mL (≈ 15.5 µM). The same measure, in the same setting: the result for `Nc1ccn([C@@H]2O[C@H](CO)[C@@H](O)[C@@H]2O)c(=O)n1` [CYTARABINE] reads 0.02 µg/mL (≈ 0.0822 µM).

Take `O=c1ccn([C@@H]2O[C@H](CO)[C@@H](O)[C@@H]2O)c(=O)[nH]1` [ARAURIDINE]: the MIC in assay [2] is above 200 µg/mL.

`CCc1cn([C@@H]2O[C@H](CO)[C@@H](O)[C@@H]2O)c(=O)nc1N`: the MIC in assay [2] is above 200 µg/mL. For the compound `CCc1cn([C@@H]2O[C@H](CO)[C@@H](O)[C@@H]2O)c(=O)[nH]c1=O`, the MIC in assay [2] is above 200 µg/mL.
